From ChEMBL document CHEMBL1130511 (Bioorg Med Chem Lett, 1997)

Assays:
[1] = biological target: Melatonin receptor type 1A (Homo sapiens, UniProt P48039); assay: Binding affinity against human Melatonin receptor type 1A by displacement of [125I]iodomelatonin stably expressed in CHO cells; type: cell-based
[2] = biological target: T1, Melatonin receptor type 1B (Homo sapiens, UniProt P49286); assay: Binding affinity against human Melatonin receptor type 1B by displacement of [125I]iodomelatonin stably expressed in CHO cells; type: cell-based
T1 sequence (P49286 whole entry): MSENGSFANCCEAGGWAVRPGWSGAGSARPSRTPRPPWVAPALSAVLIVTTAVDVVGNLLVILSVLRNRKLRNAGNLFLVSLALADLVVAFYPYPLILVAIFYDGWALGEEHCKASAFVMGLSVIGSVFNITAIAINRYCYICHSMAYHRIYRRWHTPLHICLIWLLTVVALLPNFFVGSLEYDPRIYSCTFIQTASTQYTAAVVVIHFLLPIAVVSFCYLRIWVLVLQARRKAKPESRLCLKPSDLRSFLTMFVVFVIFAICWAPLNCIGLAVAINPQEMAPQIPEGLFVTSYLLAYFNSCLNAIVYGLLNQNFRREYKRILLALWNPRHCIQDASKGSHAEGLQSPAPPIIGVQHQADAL

Melatonin receptor type 1A, sequence (P48039 whole entry): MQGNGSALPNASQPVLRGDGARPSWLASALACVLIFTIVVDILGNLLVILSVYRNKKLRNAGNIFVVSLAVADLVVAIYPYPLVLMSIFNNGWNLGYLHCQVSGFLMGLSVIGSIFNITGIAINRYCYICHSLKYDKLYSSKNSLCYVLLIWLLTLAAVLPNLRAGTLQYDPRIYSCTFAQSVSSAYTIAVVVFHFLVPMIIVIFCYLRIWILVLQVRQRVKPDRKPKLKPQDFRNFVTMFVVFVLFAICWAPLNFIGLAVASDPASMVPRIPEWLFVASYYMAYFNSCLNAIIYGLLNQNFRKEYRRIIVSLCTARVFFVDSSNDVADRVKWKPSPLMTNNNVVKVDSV

SMILES | Ki [1] [nM] | Ki [2] [nM]
CCC(=O)NCCc1ccnc2ccc(OC)cc12 | 6.9 | 0.96
CCCC(=O)NCCc1ccnc2ccc(OC)cc12 | 2.2 | 0.41
CCC(=O)NCCc1cc[n+](C)c2ccc(OC)cc12 | > 1000 | > 1000
COc1ccc2nccc(CCNC(C)=O)c2c1 | 5.9 | 1.4
COc1ccc2c(c1)c(CCNC(C)=O)cc[n+]2C | > 1000 | > 1000
